Experimental data reported in patent US9771378B2 (Denali Therapeutics, Inc., priority 2014, dated 2017).

Tested on: Aβ42 (human neuroglioma H4 cells expressing human wild type APP751)
Experiment: In vitro cell screening assay with sandwich ELISA quantification of Aβ42 peptide
Type: cell-based
Conditions: H4 cells stably expressing human wild type APP751; Pro293 chemically defined medium; compounds 0.003-10 μM; incubated overnight (16-18 h); supernatant Aβ42 by sandwich ELISA; normalized to DMSO and DAPT; read-out: Aβ42 H4 Prot Fre IC50
How it was run: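 H4 neuroglioma cells stably expressing human wild-type APP751 were treated in Pro293 medium with compounds (0.003-10 μM, 0.33% DMSO) for 16-18 h at 37° C. Secreted Aβ42 measured by sandwich ELISA (C-terminal capture, 4G8-HRP detection, TMB, 450 nm). IC50 by variable-slope sigmoidal regression on percent of DMSO control.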

SMILES	IC50
COc1ccc(Cl)c(C2COc3cnc(Nc4ccc(-n5cnc(C)c5)c(OC)c4)nc3N2C)c1 (racemic) [Example 87]	42 nM
COc1ccc(C)c(C2COc3cnc(Nc4cnc(-n5cnc(C)c5)c(OC)c4)nc3N2C)c1 (single isomer, unassigned; (+)) [Example 207A]	10 nM
COc1cc(Nc2ncc3c(n2)N(C)C(c2ccccc2)CO3)ccc1-n1cnc(C)c1 (racemic) [Example 45, N-(3-methoxy-4-(4-methyl-1H-imidazol-1-yl)phenyl)-8-methyl-7-phenyl-7,8-dihydro-6H-pyrimido[5,4-b][1,4]oxazin-2-amine]	58 nM
Cc1cn(-c2ccc(Nc3ncc4c(n3)N(C)C(c3ccc(F)cc3F)CO4)cc2F)cn1 (single isomer, unassigned; (-)) [Example 69B]	> 3000 nM
COc1cc(Nc2ncc3c(n2)N(C)C(C2CCC(F)(F)CC2)CO3)cnc1-c1cnn(C)c1 (single isomer, unassigned; (+)) [Example 231A]	342 nM
COc1cc(Nc2ncc3c(n2)N(C)C(c2cc(F)cc(F)c2)CO3)ncc1-n1cnc(C)c1 (single isomer, unassigned; (+)) [Example 220B]	44 nM
COc1cc(Nc2ncc3c(n2)N(C)C(c2ccccc2C)CO3)ccc1-n1cnc(C)c1 (single isomer, unassigned; (+)) [Example 31B]	29.6 nM
COc1cc(Nc2ncc3c(n2)N(C)C(c2ccccc2C(F)(F)F)CO3)ccc1-c1ccnc(C)c1 (single isomer, unassigned; (+)) [Example 70B]	151 nM
COc1cc(Nc2ncc3c(n2)N(C)C(C(F)(F)F)CO3)ccc1-n1cnc(C)n1 (single isomer, unassigned; (+)) [Example 242B]	1860 nM
Cc1cn(-c2ccc(Nc3ncc4c(n3)N(C)C(c3ccccc3)CO4)cc2)cn1 (single isomer, unassigned; (+)) [Example 26A]	55 nM
COc1cc(Nc2ncc3c(n2)N(C)C(C)CO3)ccc1-n1cnc(C)c1 (single isomer, unassigned; (-)) [Example 116A]	148 nM
Cc1cn(-c2ccc(Nc3ncc4c(n3)N(C)C(c3ccccc3C)CO4)cc2)cn1 (racemic) [Example 43]	216 nM
COc1cc(Nc2ncc3c(n2)N(C)C(c2cc(F)cc(F)c2)CO3)cnc1-n1cnc(C(F)(F)F)c1 (single isomer, unassigned; (+)) [Example 206A]	27 nM
COc1cc(Nc2ncc3c(n2)N(C)C(c2cc(F)c(F)cc2F)CO3)cnc1-n1cnc(C)c1 (single isomer, unassigned; (-)) [Example 181A]	9 nM
Cc1cn(-c2ccc(Nc3ncc4c(n3)N(C)C(c3ccccc3)CO4)cc2)cn1 (racemic) [Example 26]	121 nM
Cc1cn(-c2ccc(Nc3ncc4c(n3)N(C)C(Cc3ccccc3)CO4)cc2F)cn1 (single isomer, unassigned; (+)) [Example 59A]	81 nM
COc1cc(Nc2ncc3c(n2)N(C)C(c2cc(F)cc(F)c2)CO3)cnc1-n1cnc(C#N)c1 (single isomer, unassigned; (+)) [Example 211A, (+)-1-(5-((7-(3,5-difluorophenyl)-8-methyl-7,8-dihydro-6H-pyrimido [5,4-b] [1, 4]oxazin-2-yl)amino)-3-methoxypyridin-2-yl)-1H-imidazole-4-carbonitrile]	179 nM
COc1cc(Cl)c(C2COc3cnc(Nc4ccc(-n5cnc(C)c5)c(OC)c4)nc3N2C)cc1Cl (single isomer, unassigned; (+)) [Example 174B]	32 nM
COc1cc(Nc2ncc3c(n2)N(C)C(c2ccc(F)cc2C(F)(F)F)CO3)ccc1-n1cnc(C)c1 (single isomer, unassigned; (+)) [Example 94B]	29 nM
COc1cc(Nc2ncc3c(n2)N(C)C(c2ccc(F)cc2Cl)CO3)ccc1-n1cnc(C)c1 (single isomer, unassigned; (-)) [Example 93A]	189 nM
COc1cc(Nc2ncc3c(n2)N(C)C(c2cc(F)cc(F)c2)CO3)cnc1-n1cnc(C(F)(F)F)c1 (single isomer, unassigned; (-)) [Example 206B]	704 nM
COc1cc(Nc2ncc3c(n2)N(C)C(c2ccc(Cl)cc2Cl)CO3)ccc1-n1cnc(C)c1 (single isomer, unassigned; (-)) [Example 95A]	116 nM
COc1cc(Nc2ncc3c(n2)N(C)C2(CCCC2)CO3)cnc1-n1cnc(C)c1 [Example 259]	73 nM
Cc1cn(-c2ccc(Nc3ncc4c(n3)N(C)C(c3ccc(Cl)cc3C(F)(F)F)CO4)cc2F)cn1 (single isomer, unassigned; (-)) [Example 106B]	1020 nM
